Columns and labels:
[1] = system: murine leukemia L1210 cells; experiment: Growth inhibition test on cultured murine leukemia L1210 cells; type: cell-based; details: 48 hours, 37° C., Trypan blue viability
Procedure, shortened: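 L1210 cells (1×10^5) exposed to graded compound concentrations in RPMI 1640 with 10% fetal calf serum, 37° C, 5% CO2, 48 h. Viability by 0.17% Trypan blue staining, relative to untreated control cells.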

murine leukemia L1210 = experiment: Antitumor activity test on murine leukemia L1210 in vivo; design: species or system male BDF1 mice; details: days 1, 5, 9
Procedure, shortened: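 Intraperitoneal L1210 model: 1×10^6 cells inoculated i.p. into 6-week-old male BDF1 mice (21±3 g) on day 0, seven per group. Compounds in 0.5% CMC given i.p. on days 1, 5 and 9; vehicle-only controls. T/C % from mean survival time of treated over control.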

[2] = Test for water solubility; type: physicochemical; details: 20° C.
Description: 3. Test for water solubility
A standard plot of UV absorbance(220 nm) vs. concentration was made; and employed to determine water-solubility.
The mixture was then passed through a 0.45 micron disposable membrane filter before dilution and UV measurement.

Test for nephrotoxicity = type: in vivo, male ICR mice; details: 18.8 mg/kg i.p. once
Description: 4. Test for nephrotoxicity
The compounds of the present invention were dissolved or suspended in 0.5% CMC solution(in water) and were administered intraperitoneally one time to 8-week-old male ICR mice weighing 30±3 g. Each treatment and control groups consisted of six mice.
The administration amount of the test compound was 1.5 times the optimum dose obtained in Table 2, or more. On days 1, 4 and 8 after administration, their blood was collected under ether anesthesia for measurement of blood urea nitrogen concentration (BUN value) and creatinine concentration.
A pair of kidneys were taken and, after immediate weighing, were stored in a 10% neutral buffered formalin solution. The body weight ratio shown in Table 5 is a ratio of the body weight measured on days 1, 4 and 8 from the administration of the compound to the body weight measured on the administration day.

ICR mice = experiment: Acute toxicity test; type: in vivo; design: Lethality: unit not given here; details: for Lethality: 10080 min
Procedure, shortened: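 Male and female 7-week-old ICR mice, 6 per group, dosed intraperitoneally. Signs and survival followed for 7 days, with autopsy of animals that died.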

human cancers = details: testicular, ovarian, bladder, head and neck cancer; cited from earlier work

CCC1O[C@H](CN)[C@@H](CN)O1.O=C1C[O][Pt][O]1 [Example 6, (glycolato-O,O')[(4R,5R)-4,5-bis(aminomethyl)-2-ethyl-1,3-dioxolane]platinum(II)]
IC50 (concentration required for 50% inhibition of growth) [1]: 0.22 µg/mL
T/C (%) (murine leukemia L1210; 3.1 mg/kg i.p.): 113%
T/C (%) (murine leukemia L1210; 6.2 mg/kg i.p.): 162%
T/C (%) (murine leukemia L1210; 12.5 mg/kg i.p.): 205%
T/C (%) (murine leukemia L1210; 25 mg/kg i.p.): toxic
T/C (%) (murine leukemia L1210; 50 mg/kg i.p.): toxic
Solubility in water [2]: > 50 mg/mL
BUN, 1st day (Test for nephrotoxicity): 22.41 mg/100 ml
BUN, 4th day (Test for nephrotoxicity): 22.67 mg/100 ml
BUN, 8th day (Test for nephrotoxicity): 30.41 mg/100 ml
Number of dead mice for 7 days (ICR mice; female, 25.0 mg/kg i.p.): 0/6
Number of dead mice, 1st day (ICR mice; female, 25.0 mg/kg i.p.): 0/6
Number of dead mice for 7 days (ICR mice; female, 32.5 mg/kg i.p.): 1/6
Number of dead mice, 1st day (ICR mice; female, 32.5 mg/kg i.p.): 0/6
Number of dead mice, 3rd day (ICR mice; female, 32.5 mg/kg i.p.): 1/6
Lethality (ICR mice; female, 32.5 mg/kg i.p.): 16.7
Number of dead mice for 7 days (ICR mice; female, 42.3 mg/kg i.p.): 3/6
Number of dead mice, 1st day (ICR mice; female, 42.3 mg/kg i.p.): 0/6
Number of dead mice, 3rd day (ICR mice; female, 42.3 mg/kg i.p.): 1/6
Number of dead mice, 4th day (ICR mice; female, 42.3 mg/kg i.p.): 1/5
Number of dead mice, 5th day (ICR mice; female, 42.3 mg/kg i.p.): 1/4
Lethality (ICR mice; female, 42.3 mg/kg i.p.): 50.0
Number of dead mice for 7 days (ICR mice; female, 55.0 mg/kg i.p.): 5/6
Number of dead mice, 1st day (ICR mice; female, 55.0 mg/kg i.p.): 0/6
Number of dead mice, 3rd day (ICR mice; female, 55.0 mg/kg i.p.): 4/6
Number of dead mice, 4th day (ICR mice; female, 55.0 mg/kg i.p.): 1/2
Lethality (ICR mice; female, 55.0 mg/kg i.p.): 83.3
Number of dead mice for 7 days (ICR mice; female, 71.4 mg/kg i.p.): 6/6
Number of dead mice, 1st day (ICR mice; female, 71.4 mg/kg i.p.): 0/6
Number of dead mice, 3rd day (ICR mice; female, 71.4 mg/kg i.p.): 4/6
Number of dead mice, 4th day (ICR mice; female, 71.4 mg/kg i.p.): 2/2
Lethality (ICR mice; female, 71.4 mg/kg i.p.): 100.0
Number of dead mice for 7 days (ICR mice; male, 25.0 mg/kg i.p.): 0/6
Number of dead mice, 1st day (ICR mice; male, 25.0 mg/kg i.p.): 0/6
Number of dead mice for 7 days (ICR mice; male, 32.5 mg/kg i.p.): 0/6
Number of dead mice, 1st day (ICR mice; male, 32.5 mg/kg i.p.): 0/6
Number of dead mice, 3rd day (ICR mice; male, 32.5 mg/kg i.p.): 1/6
Lethality (ICR mice; male, 32.5 mg/kg i.p.): 16.7
Number of dead mice for 7 days (ICR mice; male, 42.3 mg/kg i.p.): 4/6
Number of dead mice, 1st day (ICR mice; male, 42.3 mg/kg i.p.): 0/6
Number of dead mice, 3rd day (ICR mice; male, 42.3 mg/kg i.p.): 1/6
Number of dead mice, 4th day (ICR mice; male, 42.3 mg/kg i.p.): 2/5
Number of dead mice, 5th day (ICR mice; male, 42.3 mg/kg i.p.): 1/3
Lethality (ICR mice; male, 42.3 mg/kg i.p.): 66.7
Number of dead mice for 7 days (ICR mice; male, 55.0 mg/kg i.p.): 6/6
Number of dead mice, 1st day (ICR mice; male, 55.0 mg/kg i.p.): 0/6
Number of dead mice, 3rd day (ICR mice; male, 55.0 mg/kg i.p.): 4/6
Number of dead mice, 4th day (ICR mice; male, 55.0 mg/kg i.p.): 1/2
Number of dead mice, 5th day (ICR mice; male, 55.0 mg/kg i.p.): 1/1
Lethality (ICR mice; male, 55.0 mg/kg i.p.): 100.0
Number of dead mice for 7 days (ICR mice; male, 71.4 mg/kg i.p.): 6/6
Number of dead mice, 1st day (ICR mice; male, 71.4 mg/kg i.p.): 0/6
Number of dead mice, 3rd day (ICR mice; male, 71.4 mg/kg i.p.): 4/6
Number of dead mice, 4th day (ICR mice; male, 71.4 mg/kg i.p.): 2/2
Lethality (ICR mice; male, 71.4 mg/kg i.p.): 100.0

N.N.[Cl][Pt][Cl] [cisplatin, cis-dichlorodiammineplatinum(II), reference compound]
IC50 (concentration required for 50% inhibition of growth) [1]: 0.06 µg/mL
T/C (%) (murine leukemia L1210; 1.5 mg/kg i.p.): 142%
T/C (%) (murine leukemia L1210; 3.1 mg/kg i.p.): 167%
T/C (%) (murine leukemia L1210; 6.2 mg/kg i.p.): 82%
T/C (%) (murine leukemia L1210; 12.5 mg/kg i.p.): toxic
T/C (%) (murine leukemia L1210; 25 mg/kg i.p.): toxic
effectiveness on human cancers (human cancers): effective on a variety of human cancers

Reference: patent US5395947A, “Platinum(II) complex and processes for preparing the same” (Sunkyong Industries, Ltd., priority 1991, dated 1995)
